Measurements taken from patent EP4741386A1 (Jiangsu Yahong Meditech Co., Ltd., priority 2023, dated 2025).

Target: T1, Recombinant human His6-USP1/His6-UAF1 complex protein (Homo sapiens, UniProt O94782)
T1 construct: His6; purchased R&D E-568-050
Experiment: In vitro inhibitory activity against USP1 (Ubiquitin Rhodamine 110 fluorescence detection, 384-well plate)
Type: biochemical
Settings: Ub-Rho substrate, 1 hour pre-incubation, read after 30 minutes
Protocol: Test Example 1: In vitro inhibitory activity against USP1 […]
Experimental object: to screen compounds with inhibitory activity against USP1 […] by a fluorescence detection method, using a 384-well plate.
Experimental materials: Recombinant human His6-USP1/His6-UAF1 complex protein (R&D, Cat. No.: E-568-050), Ubiquitin Rhodamine 110 protein (Ub-Rho) (R&D, Cat. No.: U-555-050), 384-well plate (Perkin Elmer, Cat. No.: 6007279); all compounds were dissolved in 100% DMSO to obtain 50 mM stock solutions.
• 1) Preparation of 1 × assay buffer: 1 × assay buffer (modified Tris buffer) was prepared; • 2) Dilution of compounds: the compounds were transferred to an assay plate via Echo.

T1 sequence (O94782 whole entry): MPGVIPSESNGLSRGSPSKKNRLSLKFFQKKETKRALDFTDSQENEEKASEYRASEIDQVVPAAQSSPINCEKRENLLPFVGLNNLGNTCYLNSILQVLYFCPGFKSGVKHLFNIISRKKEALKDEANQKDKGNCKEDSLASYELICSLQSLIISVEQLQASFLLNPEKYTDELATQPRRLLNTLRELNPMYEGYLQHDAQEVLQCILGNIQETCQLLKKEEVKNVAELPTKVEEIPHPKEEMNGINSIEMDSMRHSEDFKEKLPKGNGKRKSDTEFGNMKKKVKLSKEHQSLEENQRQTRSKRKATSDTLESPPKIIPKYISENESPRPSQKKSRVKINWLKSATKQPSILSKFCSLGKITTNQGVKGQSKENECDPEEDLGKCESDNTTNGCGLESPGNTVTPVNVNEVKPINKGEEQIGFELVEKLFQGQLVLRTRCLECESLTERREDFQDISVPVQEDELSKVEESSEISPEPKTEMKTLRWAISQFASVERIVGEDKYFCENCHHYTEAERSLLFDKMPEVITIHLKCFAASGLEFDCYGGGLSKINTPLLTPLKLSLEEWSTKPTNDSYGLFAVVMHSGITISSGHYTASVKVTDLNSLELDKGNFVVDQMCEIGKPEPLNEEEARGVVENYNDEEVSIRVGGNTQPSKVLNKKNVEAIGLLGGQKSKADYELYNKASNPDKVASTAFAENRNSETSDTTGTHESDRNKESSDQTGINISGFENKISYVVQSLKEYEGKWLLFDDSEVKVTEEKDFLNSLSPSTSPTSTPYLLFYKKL
T1 sequence (Q8TAF3 whole entry partner): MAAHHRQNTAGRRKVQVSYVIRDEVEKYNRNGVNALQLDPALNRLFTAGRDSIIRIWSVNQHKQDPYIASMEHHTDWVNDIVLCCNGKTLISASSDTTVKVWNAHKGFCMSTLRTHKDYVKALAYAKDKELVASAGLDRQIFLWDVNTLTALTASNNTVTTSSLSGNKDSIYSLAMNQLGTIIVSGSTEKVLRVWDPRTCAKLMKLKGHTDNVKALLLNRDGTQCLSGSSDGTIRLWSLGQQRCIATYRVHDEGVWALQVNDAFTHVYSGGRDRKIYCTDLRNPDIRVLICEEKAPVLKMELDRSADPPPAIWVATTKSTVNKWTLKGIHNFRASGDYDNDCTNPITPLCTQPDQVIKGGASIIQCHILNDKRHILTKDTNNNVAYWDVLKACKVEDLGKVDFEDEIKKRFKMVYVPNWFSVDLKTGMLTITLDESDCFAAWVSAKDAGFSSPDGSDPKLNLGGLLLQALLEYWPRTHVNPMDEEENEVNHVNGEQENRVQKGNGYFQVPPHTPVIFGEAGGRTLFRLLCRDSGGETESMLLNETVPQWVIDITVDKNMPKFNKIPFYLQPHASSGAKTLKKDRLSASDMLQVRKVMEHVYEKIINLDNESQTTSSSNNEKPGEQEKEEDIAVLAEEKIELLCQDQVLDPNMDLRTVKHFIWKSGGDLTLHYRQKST

| SMILES | IC50 |
| --- | --- |
| COc1cnc(-c2ccccc2C(C)C)nc1N(C)Cc1ccc(-c2ccccn2)cc1 [Example 1, 2-(2-isopropylphenyl)-5-methoxy-N-methyl-N-(4-(pyridin-2-yl)benzyl)pyrimidin-4-amine] | 26 nM |
| COc1ncnc(C2CC2)c1-c1ncc2c(n1)N(Cc1ccc(-c3ccccn3)cc1)CCO2 [Example 9, 2-(4-Cyclopropyl-6-methoxypyrimidin-5-yl)-8-(4-(pyridin-2-yl)benzyl)-7,8-dihydro-6H-pyrimido[5,4-b][1,4]oxazine] | 35 nM |
| COc1ncnc(C2CC2)c1-c1ncc2c(n1)N(CC1CCN(c3ccccn3)CC1)CCO2 [Example 10, 2-(4-Cyclopropyl-6-methoxypyrimidin-5-yl)-8-((1-(pyridin-2-yl)piperidin-4-yl)methyl)-7,8-dihydro-6H-pyrimido[5,4-b][1,4]oxazine] | 564 nM |
| CC(C)c1ccccc1-c1ncc2c(n1)N(CC1CCC(c3nc(C(F)(F)F)cn3C)CC1)CCO2 [Example 13, 2-(2-Isopropylphenyl)-8-(((1R,4R)-4-(1-methyl-4-(trifluoromethyl)-1H-imidazol-2-yl)cyclohexyl)methyl)-7,8-dihydro-6H-pyrimido [5,4-b][1,4] oxazine] | 1.9 nM |
| CC(C)c1ccccc1-c1ncc2c(n1)N(C[C@H]1CC[C@@H](c3nc(C(F)(F)F)cn3C)CC1)CCO2 [Example 14, 2-(2-Isopropylphenyl)-8-(((1s,4s)-4-(1-methyl-4-(trifluoromethyl)-1H-imidazol-2-yl)cyclohexyl)methyl)-7,8-dihydro-6H-pyrimido[5,4-b][1,4] oxazine] | 60 nM |
| CC(C)c1ccccc1-c1ncc(C(F)(F)F)c(NCc2ccc(-c3ccccn3)cc2)n1 [Example 16, 2-(2-Isopropylphenyl)-N-(4-(pyridin-2-yl)benzyl)-5-(trifluoromethyl)pyrimidin-4-amine] | 30.6 nM |
| CC(C)c1ccccc1-c1ncc2c(n1)N(CC1CCN(c3nc(C(F)(F)F)cn3C)CC1)C(=O)CO2 [Example 24, 2-(2-Isopropylphenyl)-8-((1-(1-methyl-4-(trifluoromethyl)-1H-imidazol-2-yl)piperidin-4-yl)methyl)-6H-pyrimido[5,4-b][1,4]oxazin-7(8H)-one] | 8.8 nM |
| CC(C)c1ccccc1-c1ncc(C(F)(F)F)c(NCC2CCN(c3nc(C(F)(F)F)cn3C)CC2)n1 [Example 25, 2-(2-Isopropylphenyl)-N-((1-(1-methyl-4-(trifluoromethyl)-1H-imidazol-2-yl)piperidin-4-yl)methyl)-5-(trifluoromethyl)pyrimidin-4-amine] | 3.7 nM |
| COc1cnc(-c2c(OC)ncnc2C2CC2)nc1NCc1ccc(-c2nc(C(F)(F)F)cn2C)cc1 [Example 29, 4'-Cyclopropyl-5,6'-dimethoxy-N-(4-(1-methyl-4-(trifluoromethyl)-1H-imidazol-2-yl)benzyl)-[2,5'-bipyrimidin]-4-amine] | 4.8 nM |
| COc1ncnc(C2CC2)c1-c1ncc2c(n1)N(CC1CCN(c3nc(C(F)(F)F)cn3C)CC1)C(=O)CO2 [Example 30, 2-(4-Cyclopropyl-6-methoxypyrimidin-5-yl)-8-((1-(1-methyl-4-(trifluoromethyl)-1H-imidazol-2-yl)piperidin-4-yl)methyl)-6H-pyrimido[5,4-b][1,4]oxazin-7(8H)-one] | 37 nM |
| COc1ncnc(C2CC2)c1-c1nc(NCc2ccc(-c3ccccn3)cc2)c2[nH]ccc2n1 [Example 37, 2-(4-Cyclopropyl-6-methoxypyrimidin-5-yl)-N-(4-(pyridin-2-yl)benzyl)-5H-pyrrolo[3,2-d]pyrimidin-4-amine] | 51 nM |
| COc1cnc(-c2ccccc2C(C)C)nc1NCc1ccc2c(c1)CN(C1CCC(=O)NC1=O)C2=O (stereo not drawn) [Example 41, 3-(5-(((2-(2-Isopropylphenyl)-5-methoxypyrimidin-4-yl)amino)methyl)-1-oxoisoindolin-2-yl)piperidine-2,6-dione] | 1260 nM |
| COc1cnc(-c2ccccc2C(C)C)nc1NCc1ccc(OCc2ccccn2)cc1 [Example 67, 2-(2-Isopropylphenyl)-5-methoxy-N-(4-(pyridin-2-ylmethoxy)benzyl)pyrimidin-4-amine] | 5.3 nM |
| CC(C)Oc1cnc(-c2ccccc2C(C)C)nc1NCC12CCC(c3ccc(C(F)(F)F)cn3)(CC1)CC2 [Example 74, 5-Isopropoxy-2-(2-isopropylphenyl)-N-((4-(5-(trifluoromethyl)pyridin-2-yl)bicyclo[2.2.2]octan-1-yl)methyl)pyrimidin-4-amine] | 873 nM |
| CC(C)c1ccccc1-c1ncc(C(F)(F)F)c(NCC2CCN(c3ccccn3)CC2)n1 [Example 76, 2-(2-Isopropylphenyl)-N-((1-(pyridin-2-yl)piperidin-4-yl)methyl)-5-(trifluoromethyl)pyrimidin-4-amine] | 30.1 nM |
| CC(C)c1ccccc1-c1nc(NCc2ccc3c(c2)CCN(C)C3=O)c2occc2n1 [Example 77, 6-(((2-(2-Isopropylphenyl)furo[3,2-d]pyrimidin-4-yl)amino)methyl)-2-methyl-3,4-dihydroisoquinolin-1 (2H)-one] | 28 nM |
| CC(C)c1ccccc1-c1nc(NCc2ccc3c(c2)CCN(C(C)C)C3=O)c2occc2n1 [Example 78, 2-Isopropyl-6-(((2-(2-isopropylphenyl)furo[3,2-d]pyrimidin-4-yl)amino)methyl)-3,4-dihydroisoquinolin-1(2H)-one] | 6.4 nM |
| CCOCCOc1ccc(CNc2nc(-c3ccccc3C(C)C)nc3ccoc23)cc1 [Example 79, N-(4-(2-Ethoxyethoxy)benzyl)-2-(2-isopropylphenyl)furo[3,2-d]pyrimidin-4-amine] | 4.5 nM |
| COC1CC(Oc2ccc(CNc3nc(-c4ccccc4C(C)C)nc4ccoc34)cc2)C1 (stereo not drawn) [Example 80, 2-(2-Isopropylphenyl)-N-(4-(3-methoxycyclobutoxy)benzyl)furo[3,2-d]pyrimidin-4-amine] | 26 nM |
| CC(C)c1ccccc1-c1ncc(N2CCOCC2)c(NCc2ccc(-c3nc(C(F)(F)F)cn3C)cc2)n1 [Example 87, 2-(2-Isopropylphenyl)-N-(4-(1-methyl-4-(trifluoromethyl)-1H-imidazol-2-yl)benzyl)-5-morpholinopyrimidin-4-amine] | 6.2 nM |
| Cc1cc(C(F)(F)F)nn1-c1ccc(CNc2nc(-c3ccccc3C(C)C)ncc2O)cc1 [Example 90, 2-(2-Isopropylphenyl)-4-((4-(5-methyl-3-(trifluoromethyl)-1H-pyrazol-1-vl)benzyl)amino)pyrimidin-5-ol] | 102 nM |
| COc1cnc(-c2c(OC)ncnc2C2CC2)nc1NCc1ccc2c(c1)CCN(C(C)C)C2=O [Example 97, 6-(((4'-Cyclopropyl-5,6'-dimethoxy-[2,5'-bipyrimidin]-4-yl)amino)methyl)-2-isopropyl-3,4-dihydroisoquinolin-1(2H)-one] | 263 nM |
| COc1ncnc(C2CC2)c1-c1ncc(OC(C)C)c(NCC23CCC(c4ccc(C(F)(F)F)cn4)(CC2)CC3)n1 [Example 112, 4'-Cyclopropyl-5-isopropoxy-6'-methoxy-N-((4-(5-(trifluoromethyl)pyridin-2-yl)bicyclo[2.2.2]octan-1-yl)methyl)-[2,5'-bipyrimidin]-4-amine] | 266 nM |
| COc1ncnc(C2CC2)c1-c1nc(NCc2ccc3c(c2)CCN(C)C3=O)c2occc2n1 [Example 114, 6-(((2-(4-Cyclopropyl-6-methoxypyrimidin-5-yl)furo[3,2-d]pyrimidin-4-yl)amino)methyl)-2-methyl-3,4-dihydroisoquinolin-1(2H)-one] | 648 nM |
